Assay results reported in publication PMC10819809 (Microorganisms, 2024).
In brackets after ≈: the same amount, converted by molar mass. Square brackets hold non-standard residues; d marks the D form. Peptide text beside a SMILES is read from it.

What was measured:
MDR-TB = type: cell-based, Mycobacterium tuberculosis; parameters: key: Cord formation like wild type (without peptide) was classified as “normal”; no cord formation was detected, and they were classified as “not observed”; details: 10 µg/mL peptide; Nikon Ni-E microscope
M. tuberculosis H37Rv [1] = type: cell-based, Mycobacterium tuberculosis; parameters: key to Cord Formation at 10 µg/mL, H37Rv: Cord formation like wild type (without peptide) was classified as “normal”; no cord formation was detected, and they were classified as “not observed”; details: for Cord Formation at 10 µg/mL, H37Rv: 10 µg/mL peptide, Nikon Ni-E microscope
MTB = details: peptide 14D combined with another peptide; clinical trial, 255 samples from adults, routine test; cited from earlier work
M. tuberculosis H37Rv [2] = details: microdilution broth, 96-well, 2 × 10^5 CFU/mL, 37 °C 14 days, resazurin 48 h; conducted twice with three technical replicates each
M. tuberculosis = type: cell-based, Mycobacterium tuberculosis; details: for TTP Values at Different Peptide Concentrations, 30 µg/mL: purified peptide 30 µg/mL, MGIT, BD BACTEC MGIT 320, TB alone 12 d 4 h

Molecule | Cord Formation at 10 µg/mL, MDR-TB (MDR-TB) | Cord Formation at 10 µg/mL, H37Rv (M. tuberculosis H37Rv [1]) | effect on cord formation (M. tuberculosis H37Rv [1]; 1 and 10 µg/mL peptide) | increase in sample positivity rates (MTB) [%] | MIC in µg/mL, H37Rv (M. tuberculosis H37Rv [2]) [µg/mL] | TTP Values at Different Peptide Concentrations, 30 µg/mL (M. tuberculosis) | prolongation of TTP compared to the wild type (M. tuberculosis; 3 µg/mL purified peptide) | reduction of TTP compared to the wild-type peptide 14D (M. tuberculosis; 3 µg/mL purified peptide) [h] | reduction of TTP relative to the untreated control (M. tuberculosis; 3 µg/mL purified peptide) [h]
CC[C@@H](C)[C@@H](NC(=O)[C@@H](CCCCN)NC(=O)[C@H](N)Cc1c[nH]c2ccccc12)C(=O)N[C@@H](C(=O)N[C@H](Cc1ccccc1)C(=O)N[C@H](Cc1c[nH]c2ccccc12)C(=O)N[C@H](Cc1c[nH]c2ccccc12)C(=O)N[C@H](CCCNC(=N)N)C(=O)N[C@H](CCCNC(=N)N)C(N)=O)C(C)C [peptide 14D] (H-[dW][dK][dI][dV][dF][dW][dW][dR][dR]-NH2) | not observed | not observed | diminish cord formation | 46 | >50 |  |  |  | 
CC[C@@H](C)[C@@H](NC(=O)[C@@H](CCCCN)NC(=O)[C@H](N)Cc1c[nH]c2ccccc12)C(=O)N[C@H](CO)C(=O)N[C@H](Cc1ccccc1)C(=O)N[C@H](Cc1c[nH]c2ccccc12)C(=O)N[C@H](Cc1c[nH]c2ccccc12)C(=O)N[C@H](CCCNC(=N)N)C(=O)N[C@H](CCCNC(=N)N)C(N)=O [wkisfwwrr] (H-[dW][dK][dI][dS][dF][dW][dW][dR][dR]-NH2; N-terminus assumed) | normal | normal |  |  | 20 (≈ 14.7 µM) |  |  |  | 
CC[C@@H](C)[C@@H](NC(=O)[C@@H](CCCCN)NC(=O)[C@H](N)Cc1c[nH]c2ccccc12)C(=O)N[C@@H](C(=O)N[C@H](Cc1ccccc1)C(=O)NCC(=O)N[C@H](Cc1c[nH]c2ccccc12)C(=O)N[C@H](CCCNC(=N)N)C(=O)N[C@H](CCCNC(=N)N)C(N)=O)C(C)C [wkivfGwrr] (H-[dW][dK][dI][dV][dF]G[dW][dR][dR]-NH2; N-terminus assumed) | normal | normal |  |  | 20 (≈ 16 µM) | neg (55 d) |  |  | 
CC[C@@H](C)[C@@H](NC(=O)[C@@H](CCCCN)NC(=O)[C@H](N)Cc1c[nH]c2ccccc12)C(=O)N[C@@H](C(=O)N[C@H](Cc1ccccc1)C(=O)N[C@H](CC(=O)O)C(=O)N[C@H](Cc1c[nH]c2ccccc12)C(=O)N[C@H](CCCNC(=N)N)C(=O)N[C@H](CCCNC(=N)N)C(N)=O)C(C)C [wkivfdwrr] (H-[dW][dK][dI][dV][dF][dD][dW][dR][dR]-NH2) | not observed | not observed |  |  | 20 (≈ 15.3 µM) | neg (55 d) | approximately 22 days |  | 
CC[C@@H](C)[C@@H](NC(=O)[C@@H](CCCCN)NC(=O)[C@H](N)Cc1c[nH]c2ccccc12)C(=O)N[C@@H](C(=O)N[C@H](Cc1ccccc1)C(=O)N[C@H](CC(N)=O)C(=O)N[C@H](Cc1c[nH]c2ccccc12)C(=O)N[C@H](CCCNC(=N)N)C(=O)N[C@H](CCCNC(=N)N)C(N)=O)C(C)C [wkivfnwrr] (H-[dW][dK][dI][dV][dF][dN][dW][dR][dR]-NH2; N-terminus assumed) | normal | normal |  |  | 20 (≈ 15.3 µM) |  |  |  | 
NH2-wkivfiwrr-CONH2 [14D, position 6 w substituted by i, C-terminal amidated] |  |  |  |  |  |  |  | 25 | 56
